From ChEMBL document CHEMBL4507319 (2021)

Legend:
Conditions in all cases: Compound concentration 1000.0 nM
[1] = biological target: T1, Myotonin-protein kinase (Homo sapiens) (UniProt Q09013)
T1 sequence (whole entry): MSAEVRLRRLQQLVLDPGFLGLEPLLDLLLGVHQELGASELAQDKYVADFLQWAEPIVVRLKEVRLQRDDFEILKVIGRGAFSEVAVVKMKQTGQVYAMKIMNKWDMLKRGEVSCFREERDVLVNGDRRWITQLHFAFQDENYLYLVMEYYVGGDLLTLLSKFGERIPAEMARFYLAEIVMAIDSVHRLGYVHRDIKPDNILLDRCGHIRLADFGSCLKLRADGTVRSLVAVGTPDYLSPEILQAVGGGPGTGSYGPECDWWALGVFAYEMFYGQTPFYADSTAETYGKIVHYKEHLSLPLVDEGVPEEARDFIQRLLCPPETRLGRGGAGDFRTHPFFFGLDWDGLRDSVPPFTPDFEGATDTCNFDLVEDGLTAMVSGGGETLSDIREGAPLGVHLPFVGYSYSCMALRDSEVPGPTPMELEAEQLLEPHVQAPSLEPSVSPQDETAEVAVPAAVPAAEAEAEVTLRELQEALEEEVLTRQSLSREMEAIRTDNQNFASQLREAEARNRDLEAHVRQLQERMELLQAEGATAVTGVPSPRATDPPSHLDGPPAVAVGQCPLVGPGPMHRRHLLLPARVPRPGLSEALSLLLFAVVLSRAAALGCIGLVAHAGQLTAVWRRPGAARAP

[2] = biological target: Leukocyte tyrosine kinase receptor (Homo sapiens) (UniProt P29376)
[3] = biological target: MAP kinase-interacting serine/threonine-protein kinase 1 (Homo sapiens) (UniProt Q9BUB5)
MAP kinase-interacting serine/threonine-protein kinase 1 (Homo sapiens), sequence (Q9BUB5 whole entry, looked up): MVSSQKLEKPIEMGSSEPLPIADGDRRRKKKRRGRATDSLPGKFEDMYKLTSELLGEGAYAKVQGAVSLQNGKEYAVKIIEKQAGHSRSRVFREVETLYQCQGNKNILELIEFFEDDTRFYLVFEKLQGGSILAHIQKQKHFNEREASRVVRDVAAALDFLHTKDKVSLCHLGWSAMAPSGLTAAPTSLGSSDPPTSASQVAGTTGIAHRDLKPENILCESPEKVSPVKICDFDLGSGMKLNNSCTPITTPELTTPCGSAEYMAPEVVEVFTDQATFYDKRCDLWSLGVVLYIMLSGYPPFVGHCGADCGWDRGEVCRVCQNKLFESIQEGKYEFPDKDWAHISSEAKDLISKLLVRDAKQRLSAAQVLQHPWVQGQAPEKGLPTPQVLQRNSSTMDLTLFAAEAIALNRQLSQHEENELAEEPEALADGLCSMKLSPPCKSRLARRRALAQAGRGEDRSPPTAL

[4] = biological target: Mitogen-activated protein kinase 11 (Homo sapiens) (UniProt Q15759)
Mitogen-activated protein kinase 11 (Homo sapiens), sequence (Q15759 whole entry): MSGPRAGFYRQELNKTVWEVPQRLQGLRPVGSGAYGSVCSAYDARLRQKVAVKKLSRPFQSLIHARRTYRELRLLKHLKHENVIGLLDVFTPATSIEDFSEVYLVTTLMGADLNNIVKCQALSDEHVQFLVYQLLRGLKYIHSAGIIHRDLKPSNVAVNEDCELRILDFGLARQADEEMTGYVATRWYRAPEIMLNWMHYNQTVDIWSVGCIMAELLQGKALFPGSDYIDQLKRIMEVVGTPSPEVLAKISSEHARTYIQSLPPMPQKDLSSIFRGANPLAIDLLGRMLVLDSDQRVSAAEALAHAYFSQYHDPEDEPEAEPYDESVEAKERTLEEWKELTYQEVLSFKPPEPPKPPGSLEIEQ

[5] = biological target: Fibroblast growth factor receptor 4 (Homo sapiens) (UniProt P22455)
[6] = biological target: Dual specificity mitogen-activated protein kinase kinase 1 (Homo sapiens) (UniProt Q02750)
[7] = biological target: Serine/threonine-protein kinase RIO2 (Homo sapiens) (UniProt Q9BVS4)
Serine/threonine-protein kinase RIO2 (Homo sapiens), sequence (Q9BVS4 whole entry, looked up): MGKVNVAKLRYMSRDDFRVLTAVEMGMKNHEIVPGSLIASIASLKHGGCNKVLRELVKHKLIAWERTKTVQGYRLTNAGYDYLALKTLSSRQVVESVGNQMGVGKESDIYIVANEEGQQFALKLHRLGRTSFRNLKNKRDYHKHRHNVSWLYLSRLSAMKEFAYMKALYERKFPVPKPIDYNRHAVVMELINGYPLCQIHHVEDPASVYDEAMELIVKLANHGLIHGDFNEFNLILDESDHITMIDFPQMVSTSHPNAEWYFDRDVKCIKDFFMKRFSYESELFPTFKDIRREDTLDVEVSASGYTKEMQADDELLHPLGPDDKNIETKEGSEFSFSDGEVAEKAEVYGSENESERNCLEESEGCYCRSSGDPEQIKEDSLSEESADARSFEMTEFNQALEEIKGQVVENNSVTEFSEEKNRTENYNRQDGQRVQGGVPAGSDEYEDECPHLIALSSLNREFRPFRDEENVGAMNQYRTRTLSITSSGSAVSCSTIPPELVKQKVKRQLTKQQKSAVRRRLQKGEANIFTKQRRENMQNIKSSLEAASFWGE

[8] = biological target: T2, Serine/threonine-protein kinase D1 (Homo sapiens) (UniProt Q15139)
T2 sequence (whole entry): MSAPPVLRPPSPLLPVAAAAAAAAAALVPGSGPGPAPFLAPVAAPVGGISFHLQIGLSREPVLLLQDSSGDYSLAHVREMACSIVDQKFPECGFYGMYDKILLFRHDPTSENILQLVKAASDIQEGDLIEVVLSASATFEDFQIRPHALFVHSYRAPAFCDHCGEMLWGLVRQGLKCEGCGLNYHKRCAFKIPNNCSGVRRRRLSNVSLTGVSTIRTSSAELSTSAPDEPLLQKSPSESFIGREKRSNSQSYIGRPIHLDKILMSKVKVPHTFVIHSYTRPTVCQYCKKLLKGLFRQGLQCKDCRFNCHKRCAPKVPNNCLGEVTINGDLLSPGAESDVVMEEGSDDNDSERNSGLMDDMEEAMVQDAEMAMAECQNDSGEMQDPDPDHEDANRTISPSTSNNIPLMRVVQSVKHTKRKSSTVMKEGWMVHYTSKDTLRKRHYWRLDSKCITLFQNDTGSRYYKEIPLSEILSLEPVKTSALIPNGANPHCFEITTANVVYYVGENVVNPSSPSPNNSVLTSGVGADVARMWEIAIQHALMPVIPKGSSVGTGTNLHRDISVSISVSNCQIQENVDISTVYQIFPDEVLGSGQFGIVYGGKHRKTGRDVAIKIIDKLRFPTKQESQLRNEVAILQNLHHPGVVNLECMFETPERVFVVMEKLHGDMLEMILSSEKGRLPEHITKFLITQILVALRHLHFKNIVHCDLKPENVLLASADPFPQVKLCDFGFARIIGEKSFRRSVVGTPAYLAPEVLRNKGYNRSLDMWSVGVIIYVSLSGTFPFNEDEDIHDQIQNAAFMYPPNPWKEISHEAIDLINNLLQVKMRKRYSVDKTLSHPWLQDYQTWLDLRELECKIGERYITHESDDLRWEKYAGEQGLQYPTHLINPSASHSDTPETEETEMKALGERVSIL

[9] = biological target: Tyrosine-protein kinase BTK (Homo sapiens) (UniProt Q06187)
Tyrosine-protein kinase BTK (Homo sapiens), sequence (Q06187 whole entry): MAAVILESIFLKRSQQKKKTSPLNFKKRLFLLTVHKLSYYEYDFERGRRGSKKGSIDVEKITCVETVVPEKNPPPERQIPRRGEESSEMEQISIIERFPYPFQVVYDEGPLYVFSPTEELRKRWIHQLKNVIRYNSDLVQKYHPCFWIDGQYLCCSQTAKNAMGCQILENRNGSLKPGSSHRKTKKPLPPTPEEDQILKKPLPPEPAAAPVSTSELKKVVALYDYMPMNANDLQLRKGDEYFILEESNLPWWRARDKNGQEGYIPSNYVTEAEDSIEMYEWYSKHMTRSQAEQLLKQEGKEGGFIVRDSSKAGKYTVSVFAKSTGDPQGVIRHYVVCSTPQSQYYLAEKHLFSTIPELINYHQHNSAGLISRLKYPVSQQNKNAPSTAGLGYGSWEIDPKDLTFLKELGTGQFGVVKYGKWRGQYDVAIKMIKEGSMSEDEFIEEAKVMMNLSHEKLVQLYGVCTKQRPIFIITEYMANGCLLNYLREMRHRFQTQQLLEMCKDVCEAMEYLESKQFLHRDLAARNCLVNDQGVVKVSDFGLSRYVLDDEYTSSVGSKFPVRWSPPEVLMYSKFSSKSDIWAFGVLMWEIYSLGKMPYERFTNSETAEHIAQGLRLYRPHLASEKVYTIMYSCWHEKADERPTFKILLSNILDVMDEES

[10] = biological target: Tyrosine-protein kinase Fer (Homo sapiens) (UniProt P16591)
Tyrosine-protein kinase Fer (Homo sapiens), sequence (P16591 whole entry, looked up): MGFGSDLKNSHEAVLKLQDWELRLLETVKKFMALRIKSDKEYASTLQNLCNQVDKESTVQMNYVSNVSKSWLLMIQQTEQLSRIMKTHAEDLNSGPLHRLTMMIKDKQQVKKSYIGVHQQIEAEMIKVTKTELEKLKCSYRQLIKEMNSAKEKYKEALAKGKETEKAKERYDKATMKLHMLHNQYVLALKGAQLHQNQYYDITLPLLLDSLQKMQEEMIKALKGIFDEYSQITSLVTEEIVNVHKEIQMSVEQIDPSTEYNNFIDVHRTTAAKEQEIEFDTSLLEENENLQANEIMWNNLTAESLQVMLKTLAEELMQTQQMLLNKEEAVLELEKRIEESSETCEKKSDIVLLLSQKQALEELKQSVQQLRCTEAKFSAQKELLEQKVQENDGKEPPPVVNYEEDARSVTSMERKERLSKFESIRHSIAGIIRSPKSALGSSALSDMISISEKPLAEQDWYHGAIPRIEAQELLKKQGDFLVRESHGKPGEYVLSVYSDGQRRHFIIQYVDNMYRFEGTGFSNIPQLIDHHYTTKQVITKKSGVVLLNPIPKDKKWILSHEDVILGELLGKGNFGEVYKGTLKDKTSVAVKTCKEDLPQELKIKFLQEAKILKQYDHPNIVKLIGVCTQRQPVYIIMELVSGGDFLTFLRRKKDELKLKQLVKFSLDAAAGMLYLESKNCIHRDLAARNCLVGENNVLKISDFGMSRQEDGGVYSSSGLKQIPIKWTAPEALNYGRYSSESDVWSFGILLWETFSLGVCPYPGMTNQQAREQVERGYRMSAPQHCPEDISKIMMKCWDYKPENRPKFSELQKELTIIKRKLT

[11] = biological target: STE20-like serine/threonine-protein kinase (Homo sapiens) (UniProt Q9H2G2)
[12] = biological target: Receptor tyrosine-protein kinase erbB-3 (Homo sapiens) (UniProt P21860)
[13] = biological target: BDNF/NT-3 growth factors receptor (Homo sapiens) (UniProt Q16620)
[14] = biological target: 1-phosphatidylinositol 3-phosphate 5-kinase (Homo sapiens) (UniProt Q9Y2I7)
1-phosphatidylinositol 3-phosphate 5-kinase (Homo sapiens), sequence (Q9Y2I7 whole entry): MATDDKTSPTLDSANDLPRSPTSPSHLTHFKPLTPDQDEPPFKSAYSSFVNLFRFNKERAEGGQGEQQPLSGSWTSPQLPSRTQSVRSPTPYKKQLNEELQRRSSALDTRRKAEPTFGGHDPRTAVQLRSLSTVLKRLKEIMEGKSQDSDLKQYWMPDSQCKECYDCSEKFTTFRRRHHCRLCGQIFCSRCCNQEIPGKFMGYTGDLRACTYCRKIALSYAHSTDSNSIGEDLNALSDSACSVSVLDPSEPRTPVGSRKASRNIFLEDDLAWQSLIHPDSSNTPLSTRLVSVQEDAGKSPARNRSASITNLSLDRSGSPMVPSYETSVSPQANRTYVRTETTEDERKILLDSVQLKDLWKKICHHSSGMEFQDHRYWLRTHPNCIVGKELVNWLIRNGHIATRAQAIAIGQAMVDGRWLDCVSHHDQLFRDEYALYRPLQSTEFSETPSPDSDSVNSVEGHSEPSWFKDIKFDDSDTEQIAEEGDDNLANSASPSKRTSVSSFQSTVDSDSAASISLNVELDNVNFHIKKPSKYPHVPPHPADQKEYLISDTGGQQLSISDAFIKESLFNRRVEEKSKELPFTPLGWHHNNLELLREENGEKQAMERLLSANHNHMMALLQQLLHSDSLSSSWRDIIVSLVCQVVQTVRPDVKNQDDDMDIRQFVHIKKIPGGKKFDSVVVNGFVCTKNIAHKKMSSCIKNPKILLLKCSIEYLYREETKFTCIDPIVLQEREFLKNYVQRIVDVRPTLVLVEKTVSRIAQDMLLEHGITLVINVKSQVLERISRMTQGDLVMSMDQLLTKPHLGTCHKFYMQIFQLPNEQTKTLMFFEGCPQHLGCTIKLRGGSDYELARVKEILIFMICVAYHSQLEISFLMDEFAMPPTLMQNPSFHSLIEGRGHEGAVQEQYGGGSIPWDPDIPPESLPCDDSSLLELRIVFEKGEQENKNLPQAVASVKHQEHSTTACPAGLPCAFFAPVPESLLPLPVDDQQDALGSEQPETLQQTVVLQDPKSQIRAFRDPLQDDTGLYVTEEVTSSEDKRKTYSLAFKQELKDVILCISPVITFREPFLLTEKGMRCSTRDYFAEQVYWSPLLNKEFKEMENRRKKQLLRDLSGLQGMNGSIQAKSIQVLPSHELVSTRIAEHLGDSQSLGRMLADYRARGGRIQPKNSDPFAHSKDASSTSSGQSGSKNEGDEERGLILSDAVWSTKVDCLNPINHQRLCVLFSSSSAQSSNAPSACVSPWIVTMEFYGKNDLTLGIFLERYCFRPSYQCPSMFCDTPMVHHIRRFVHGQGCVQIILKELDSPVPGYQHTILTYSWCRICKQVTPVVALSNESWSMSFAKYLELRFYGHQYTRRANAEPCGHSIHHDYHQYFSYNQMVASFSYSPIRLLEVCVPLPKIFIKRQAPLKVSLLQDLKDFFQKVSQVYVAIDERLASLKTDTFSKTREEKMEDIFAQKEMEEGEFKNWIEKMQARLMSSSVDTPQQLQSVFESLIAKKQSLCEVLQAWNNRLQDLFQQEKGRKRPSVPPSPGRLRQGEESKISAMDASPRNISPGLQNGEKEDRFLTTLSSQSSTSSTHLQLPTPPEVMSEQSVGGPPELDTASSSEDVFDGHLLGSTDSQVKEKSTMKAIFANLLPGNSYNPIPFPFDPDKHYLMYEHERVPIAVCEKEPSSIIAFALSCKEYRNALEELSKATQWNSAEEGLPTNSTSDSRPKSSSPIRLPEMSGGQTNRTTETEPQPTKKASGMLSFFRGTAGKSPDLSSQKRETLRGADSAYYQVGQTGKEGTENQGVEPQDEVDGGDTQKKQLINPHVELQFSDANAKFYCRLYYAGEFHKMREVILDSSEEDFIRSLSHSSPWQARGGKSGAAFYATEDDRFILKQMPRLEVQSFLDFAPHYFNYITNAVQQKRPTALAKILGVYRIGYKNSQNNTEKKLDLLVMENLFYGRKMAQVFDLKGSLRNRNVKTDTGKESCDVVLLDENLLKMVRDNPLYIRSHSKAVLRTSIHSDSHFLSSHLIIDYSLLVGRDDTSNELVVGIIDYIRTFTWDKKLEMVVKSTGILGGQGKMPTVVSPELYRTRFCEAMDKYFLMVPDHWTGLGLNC

[15] = test system: Tyrosine-protein kinase ABL1 (Homo sapiens), P00519 [F317I]
[16] = biological target: T3, Serine/threonine-protein kinase Nek11 (Homo sapiens) (UniProt Q8NG66)
T3 sequence (whole entry): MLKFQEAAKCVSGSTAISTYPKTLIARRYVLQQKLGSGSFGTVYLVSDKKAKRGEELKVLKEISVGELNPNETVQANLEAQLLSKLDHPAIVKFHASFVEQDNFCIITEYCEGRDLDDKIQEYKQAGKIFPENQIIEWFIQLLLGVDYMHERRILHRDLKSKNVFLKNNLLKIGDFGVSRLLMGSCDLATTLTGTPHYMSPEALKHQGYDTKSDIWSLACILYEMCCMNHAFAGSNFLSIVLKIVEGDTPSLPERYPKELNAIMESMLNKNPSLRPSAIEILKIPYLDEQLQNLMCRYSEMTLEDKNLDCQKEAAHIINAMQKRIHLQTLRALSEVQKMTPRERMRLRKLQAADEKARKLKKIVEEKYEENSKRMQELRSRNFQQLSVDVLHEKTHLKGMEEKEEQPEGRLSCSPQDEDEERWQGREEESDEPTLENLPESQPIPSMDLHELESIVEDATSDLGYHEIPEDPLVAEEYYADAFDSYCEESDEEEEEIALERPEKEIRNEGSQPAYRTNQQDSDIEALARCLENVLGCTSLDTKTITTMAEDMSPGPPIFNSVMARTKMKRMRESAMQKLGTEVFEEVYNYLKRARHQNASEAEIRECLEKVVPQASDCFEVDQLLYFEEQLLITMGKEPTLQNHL

Measured: residual activity

CC1=C(C#N)C(c2ccc3c(c2)c(NC(=O)c2ccccc2C)nn3C)C(C#N)=C(C)N1 [BAY-974]
inactive: [1] 99% | [2] 70% | [3] 70% | [4] 100% | [5] 100% | [6] 87% | [7] 65% | [8] 92% | [9] 85% | [10] 88% | [11] 88% | [12] 100% | [13] 72% | [14] 87% | [15] 100% | [16] 96%

CCc1ccccc1C(=O)Nc1n[nH]c2c(C)c(F)c(C3C(C#N)=C(C)N(C)C(C)=C3C#N)cc12 [BAY-3827]
inactive: [1] 100% | [2] 94% | [3] 100% | [4] 91% | [5] 100% | [6] 100% | [7] 93% | [8] 100% | [9] 99% | [10] 90% | [11] 100% | [12] 91% | [13] 100% | [14] 100% | [15] 100% | [16] 100%
